# Reference: patent US5856484A, “Sulfonylaminopyrimidine carboxylic acid derivatives having endothelin inhibiting activity” (Hoffmann-La Roche Inc., priority 1995, dated 1999)
# Legend:
# [1] = target: T1, human ETA receptors (Homo sapiens, UniProt P25101); assay: Inhibition of endothelin binding to recombinant ETA receptors; conditions: 125I-endothelin, baculovirus-insect cell membranes, 20° C. 2 hours or 4° C. 24 hours
# T1 construct: made in house; host or cells: baculovirus-infected insect cells
# T1 sequence (P25101 21-427): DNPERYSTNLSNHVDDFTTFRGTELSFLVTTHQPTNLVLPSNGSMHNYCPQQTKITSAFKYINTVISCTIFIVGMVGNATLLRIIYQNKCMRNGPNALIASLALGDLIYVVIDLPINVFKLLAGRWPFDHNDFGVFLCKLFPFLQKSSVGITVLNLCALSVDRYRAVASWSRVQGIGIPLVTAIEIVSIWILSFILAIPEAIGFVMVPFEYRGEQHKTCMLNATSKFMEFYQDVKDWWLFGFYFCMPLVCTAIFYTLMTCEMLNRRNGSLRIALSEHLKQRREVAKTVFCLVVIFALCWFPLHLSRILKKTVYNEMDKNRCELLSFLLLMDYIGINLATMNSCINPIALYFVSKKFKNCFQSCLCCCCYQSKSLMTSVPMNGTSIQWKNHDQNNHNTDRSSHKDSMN
# Experimental: I, Inhibition of endothelin binding to recombinant ETA receptors
# A cDNA coding for human ETA receptors of human placenta was cloned (M. Adachi, Y.-Y. Yang, Y. Furuichi and C-Miyamoto, BBRC 180, 1265-1272) and expressed in the baculovirus-insect cell system. Baculovirus-infected insect cells from a 23 I fermentor are centrifuged off (3000×g, 15 minutes, 4° C.) 60 hours after the infection, re-suspended in Tris buffer (5 mM, pH 7.4, 1 mM MgCl2) and again centrifuged. After a further re-suspension and centrifugation the cells are suspended in 800 ml of the same buffer and freeze-dried at -120° C. The cells disintegrate when the suspension in this hypotonic buffer mixture is thawed. After a repeated freeze-drying/thawing cycle the suspension is homogenized and centrifuged (25000 x g, 15 minutes, 4° C.). After suspension in Tris buffer (75 mM, pH 7.4, 25 mM MgCl2, 250 mM sucrose) 1 ml aliquots (protein content about 3.5 mg/ml) are stored at -85° C.
# (§1) For the binding assay, the freeze-dried membrane preparations are thawed and, after centrifugation at 20° C. and 25000 g for 10 minutes, re-suspended in assay buffer (50 mM Tris buffer pH 7.4, containing 25 mM MnCl2, 1 mM EDTA and 0.5% bovine serum albumin). 100 μl of this membrane suspension containing 5 μg of protein are incubated with 50 μl of ^125 I-endothelin (specific activity 2200 Ci/mMol) in assay buffer (25000 cpm, final concentration 20 μM) and 100 μl of assay buffer containing varying concentrations of test compound. The incubation is carried out at 20° C. for 2 hours or at 4° C. for 24 hours. The separation of free and membrane-bound radioligands is carried out by filtration over a glass fibre filter.
# (§2) The inibitory activity on ETA and ETB receptors of compounds of formula I determined in these test procedures is given in Table 1 as the IC50, i.e. as the concentration [μM] which is required to inhibit 50% of the specific binding of ^125 I-endothelin.
# [2] = target: T2, ETB receptors (Homo sapiens, UniProt P24530); assay: Inhibition of endothelin binding to human placenta membranes (ETB receptors); conditions: 125I-endothelin, 20° C. 2 hours or 4° C. 24 hours
# T2 construct: Human placenta is homogenized in 5 mM Tris buffer; from tissue; host or cells: human placenta membranes
# T2 sequence (P24530 27-442): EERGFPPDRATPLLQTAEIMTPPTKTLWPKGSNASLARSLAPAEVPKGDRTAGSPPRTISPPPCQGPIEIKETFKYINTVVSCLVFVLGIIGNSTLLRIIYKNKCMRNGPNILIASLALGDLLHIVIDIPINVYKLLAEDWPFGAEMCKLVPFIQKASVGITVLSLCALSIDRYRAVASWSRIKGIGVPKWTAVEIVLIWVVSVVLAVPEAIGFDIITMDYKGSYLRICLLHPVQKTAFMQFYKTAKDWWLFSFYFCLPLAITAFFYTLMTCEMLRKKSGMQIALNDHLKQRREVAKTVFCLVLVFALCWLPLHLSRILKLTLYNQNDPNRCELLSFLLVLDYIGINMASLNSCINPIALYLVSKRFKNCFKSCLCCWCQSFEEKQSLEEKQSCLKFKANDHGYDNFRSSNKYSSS
# Experimental: II. Inhibition of endothelin binding to human placenta membranes (ETB receptors) (see Life Sci 44:1429 (1989))
# Human placenta is homogenized in 5 mM Tris buffer, pH 7.4, which contains 1 mM MgCl2 and 250 mM sucrose. The homogenizate is centrifuged at 4° C. and 3000 g for 15 minutes, the supernatant containing the plasma membrane fraction is centrifuged at 72000 g for 30 minutes and the precipitate is washed with 75 mM Tris buffer, pH 7.4, which contains 25 mM MgCl2. Thereafter, precipitate obtained from in each case 10 g of original tissue is suspended in 1 ml of 75 mM Tris buffer, pH 7.4, containing 25 mM MgCl2 and 250 mM sucrose and freeze-dried at -20° C. in 1 ml aliquots.
# as §1, with “Tris buffer,” for “Tris buffer”, “containing 35” for “containing 5”, “^125 I-endotheline” for “^125 I-endothelin”, “2200 (Ci/mMol)” for “2200 Ci/mMol)”, “20 pM)” for “20 μM)”
# as §2
Structure (SMILES),IC50 [1] [µM],IC50 [2] [µM]
"COc1cccc(Oc2c(NS(=O)(=O)c3ccc(C(C)(C)C)cc3)nc(C(=O)Nc3nnn[nH]3)nc2OCCO)c1 [Example 10, 4-(4-tert.Butyl-phenylsulphonylamino)-6-(2-hydroxy-ethoxy)-5-(3-methoxy-phenoxy)-pyrimidine-2-carboxylic acid (1 H-tetrazol-5-yl)-amide]",13,0.14
"COc1ccc(S(=O)(=O)Nc2nc(C(=O)Nc3ccccc3)nc(OCCO)c2Oc2cccc(OC)c2)cc1 [Example 7, 4-(2-Hydroxy-ethoxy)-5-(3-methoxy-phenoxy)-6-(4-methoxy-phenylsulphonylamino)-pyrimidine-2-carboxylic acid phenylamide]",18.2,0.3
"COc1ccc(Cl)c(Oc2c(NS(=O)(=O)c3ccc(C(C)(C)C)cc3)nc(C(=O)Nc3ccccc3)nc2OCCO)c1 [Example 9, 4-(4-tert.Butyl-phenylsulphonylamino)-5-(2-chloro-5-methoxy-phenoxy)-6-(2-hydroxy-ethoxy)-pyrimidine-2-carboxylic acid phenylamide]",21.4,0.086
"COc1cccc(Oc2c(NS(=O)(=O)c3ccc(C(C)(C)C)cc3)nc(C(=O)O)nc2OCCO)c1 [Example 1, 6-(4-tert.butyl-phenylsulphonylamino)-4-(2-hydroxy-ethoxy)-5-(3-methoxy-phenoxy)-pyrimidine-2-carboxylic acid]",73,0.08
"COc1ccccc1Oc1c(NS(=O)(=O)c2ccc(C(C)(C)C)cc2)nc(C(=O)Nc2ccccc2)nc1OCCO [Example 8, 6-(4-tert.Butyl-phenylsulphonylamino)-5-(2-methoxy-phenoxy)-4-(2-hydroxy-ethoxy)-pyrimidine-2-carboxylic acid phenylamide]",13,0.06
"COc1cccc(Oc2c(NS(=O)(=O)c3ccc(C(C)(C)C)cc3)nc(C(=O)Nc3ccccc3)nc2OCCO)c1 [Example 6, 6-(4-tert.butyl-phenylsulphonylamino)-4-(2-hydroxy-ethoxy)-5-(3-methoxy-phenoxy)-pyrimidine-2-carboxylic acid phenylamide]",38,–
"COc1ccccc1Oc1c(NS(=O)(=O)c2ccc(C(C)(C)C)cc2)nc(C(=O)O)nc1OCCO [Example 5, 6-(4-tert.butyl-phenylsulphonylamino)-4-(2-hydroxy-ethoxy)-5-(2-methoxy-phenoxy)-pyrimidine-2-carboxylic acid]",16.4,0.29
"COc1ccc(Cl)c(Oc2c(NS(=O)(=O)c3ccc(C(C)(C)C)cc3)nc(C(=O)O)nc2OCCO)c1 [Example 2, 4-(4-tert.Butyl-phenylsulphonylamino)-5-(2-chloro-5-methoxy-phenoxy)-6-(2-hydroxy-ethoxy)-pyrimidine-2-carboxylic acid]",1.83,–
